According to patent publication US10428055B2, “Substituted piperidines having GPR119 agonistic activity” (DONG-A ST CO., LTD., priority 2014, dated 2019):

Target: T1, Human GPR119 (Homo sapiens, UniProt Q8TDV5)
T1 construct: host or cells: HEK293 (ATCC)
T1 sequence (Q8TDV5 1-335): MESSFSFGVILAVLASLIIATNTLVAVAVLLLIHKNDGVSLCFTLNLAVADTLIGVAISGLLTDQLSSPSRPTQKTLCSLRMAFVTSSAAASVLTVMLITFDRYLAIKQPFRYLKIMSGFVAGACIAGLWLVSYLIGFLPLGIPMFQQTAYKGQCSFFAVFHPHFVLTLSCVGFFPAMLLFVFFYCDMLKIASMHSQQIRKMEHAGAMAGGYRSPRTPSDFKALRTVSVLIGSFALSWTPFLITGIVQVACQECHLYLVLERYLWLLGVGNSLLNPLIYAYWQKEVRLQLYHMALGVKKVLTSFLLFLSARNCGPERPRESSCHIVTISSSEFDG
Experiment: Human GPR119 activation assay (cAMP, HTRF)
Assay type: cell-based
Conditions: 1 h, HEK293 cells transiently expressing human GPR119, relative to maximum effect of OEA, read-out: hGPR119 activation ability (cAMP assay) Relative Response % vs OEA; for Emax at 0.001 µM: 1 nM; for Emax at 0.01 µM: 10 nM
Excerpt: <Experimental Example 1>Human GPR119 activation assay
Human GPR119 was temporarily expressed on cells, thereby quantifying the amount of cyclic adenosine 3′,5′-monophosphate (cAMP) increased upon activating GPR119 by the compound of the present invention, using the product from Cysbio, by a method of HTRF (homogeneous time resolved fluorescence), and such quantification was used to refer to efficacy on GPR119 activation.
Human GPR119 expression vector (Origene) was overexpressed in […] renal epithelial cells (HEK293) (ATCC), and the cells were stabilized for 48 hours. With a solution of 11.1 mM glucose, 0.1% bovine serum albumin, and 0.5 mM IBMX (3-isobutyl-1-methylxanthine) which is a phosphodiesterase inhibitor being added to a KRBH (Krebs-Ringer Bicarbonate HEPES; Hou ZQ. et al., Mol Cell Endocrinol, 2008(291):71-78) buffer, the cells were pre-treated for 10 minutes. Thereafter, the cells were treated with the same solution containing a drug for 60 minutes, then the supernatant was removed, and the increase in cAMP in cells was quantified using a Cysbio cAMP HiRange kit.
As to the maximum efficacy of compounds tested, multiple concentration assessment for the compounds of the present invention was carried out, thereby assessing the relative activation level (%) to the maximum effect of oleoylethanolamide (OEA), an endogenous ligand of GPR119.

| Compound | Emax at 0.001 µM [%] | Emax at 0.01 µM [%] |
| --- | --- | --- |
| CCc1cnc(N2CCC(CCCOc3cc(F)c(C4=NCCO4)c(F)c3)CC2)nc1 [Example 1, 2-(4-(3-(1-(5-ethylpyrimidin-2-yl)piperidin-4-yl)propoxy)-2,6-difluorophenyl)-4,5-dihydrooxazole] | 50.7 | 116 |
| CCc1cnc(N2CCC(CCCOc3cc(F)c(C4=N[C@H](C)CO4)c(F)c3)CC2)nc1 [Example 2, (R)-2-(4-(3-(1-(5-ethylpyrimidin-2-yl)piperidin-4-yl)propoxy)-2,6-difluorophenyl)-4-methyl-4,5-dihydrooxazole] | 34.8 | 113 |
| CCc1cnc(N2CCC(CCCOc3cc(F)c(C4=N[C@@H](C)CO4)c(F)c3)CC2)nc1 [Example 3, (S)-2-(4-(3-(1-(5-ethylpyrimidin-2-yl)piperidin-4-yl)propoxy)-2,6-difluorophenyl)-4-methyl-4,5-dihydrooxazole] | 192 | 47.8 |
| CCc1cnc(N2CCC(CCCOc3cc(F)c(C4=NCC(C)(C)O4)c(F)c3)CC2)nc1 [Example 6, 2-(4-(3-(1-(5-ethylpyrimidin-2-yl)piperidin-4-yl)propoxy)-2,6-difluorophenyl)-5,5-dimethyl-4,5-dihydrooxazole] | 33.5 | 102 |
| CCc1cnc(N2CCC(CCCOc3cc(F)c(C4=NC[C@@H](CO)O4)c(F)c3)CC2)nc1 [Example 8, (S)-(2-(4-(3-(1-(5-ethylpyrimidin-2-yl)piperidin-4-yl)propoxy)-2,6-difluorophenyl)-4,5-dihydrooxazol-5-yl)methanol] | 144 | 393 |
| CC(C)Cc1nc(-c2cnc(N3CCC(CCCOc4cc(F)c(C5=NC[C@@H](C)O5)c(F)c4)CC3)nc2)no1 [Example 9, (R)-3-(2-(4-(3-(3,5-difluoro-4-(5-methyl-4,5-dihydrooxazol-2-yl)phenoxy)propyl)piperidin-1-yl)pyrimidin-5-yl)-5-isobuty-1,2,4-oxadiazole] | 97.1 | 241 |
| CC(C)c1noc(N2CCC(CCCOc3cc(F)c(C4=N[C@H](C)CO4)c(F)c3)CC2)n1 [Example 10, (R)-5-(4-(3-(3,5-difluoro-4-(4-methyl-4,5-dihydrooxazol-2-yl)phenoxy)propyl)piperidin-1-yl)-3-isopropyl-1,2,4-oxadiazole] | 192 | 266 |
| CCCc1nc(-c2c(F)cc(OCCCC3CCN(c4ncc(CC)cn4)CC3)cc2F)no1 [Example 14, 3-(4-(3-(1-(5-ethylpyrimidin-2-yl)piperidin-4-yl)propoxy)-2,6-difluorophenyl)-5-propyl-1,2,4-oxadiazole] | 96 | 131 |
| CCc1cnc(N2CCC(CCCOc3cc(F)c(-c4noc(C(C)(C)C)n4)c(F)c3)CC2)nc1 [Example 16, 5-(tert-butyl)-3-(4-(3-(1-(5-ethylpyrimidin-2-yl)piperidin-4-yl)propoxy)-2,6-difluorophenyl)-1,2,4-oxadiazole] | 108 | 321 |
| CCc1cnc(N2CCC(CCCOc3cc(F)c(-c4noc(CO)n4)c(F)c3)CC2)nc1 [Example 17, (3-(4-(3-(1-(5-ethylpyrimidin-2-yl)piperidin-4-yl)propoxy)-2,6-difluorophenyl)-1,2,4-oxadiazol-5-yl)methanol] | 116 | 216 |
| CCc1cnc(N2CCC(CCCOc3cc(F)c(-c4noc(CCO)n4)c(F)c3)CC2)nc1 [Example 18, 2-(3-(4-(3-(1-(5-ethylpyrimidin-2-yl)piperidin-4-yl)propoxy)-2,6-difluorophenyl)-1,2,4-oxadiazol-5-yl)ethan-1-ol] | 303 | 436 |
| CCc1cnc(N2CCC(CCCOc3cc(F)c(-c4noc(C[C@@H](C)O)n4)c(F)c3)CC2)nc1 [Example 20, (R)-1-(3-(4-(3-(1-(5-ethylpyrimidin-2-yl)piperidin-4-yl)propoxy)-2,6-difluorophenyl)-1,2,4-oxadiazol-5-yl) propan-2-ol] | 235 | 413 |
| CCc1cnc(N2CCC(CCCOc3cc(F)c(-c4noc(C[C@H](C)O)n4)c(F)c3)CC2)nc1 [Example 21, (S)-1-(3-(4-(3-(1-(5-ethylpyrimidin-2-yl)piperidin-4-yl)propoxyl)-2,6-difluorophenyl)-1,2,4-oxadiazol-5-yl) propan-2-ol] | 160 | 336 |
| COc1cnc(N2CCC(CCCOc3cc(F)c(-c4noc(C(C)C)n4)c(F)c3)CC2)nc1 [Example 26, 3-(2,6-difluoro-4-(3-(1-(5-methoxypyrimidin-2-yl)piperidin-4-yl)propoxy)phenyl)-5-isopropyl-1,2,4-oxadiazole] | 67.8 | 165 |
| CC(C)Oc1cnc(N2CCC(CCCOc3cc(F)c(-c4noc(C(C)C)n4)c(F)c3)CC2)nc1 [Example 27, 3-(2,6-difluoro-4-(3-(1-(5-isopropoxypyrimidin-2-yl)piperidin-4-yl)propoxy)phenyl)-5-isopropyl-1,2,4-oxadiazole] | 9.4 | 123 |
| CC(C)c1nc(-c2c(F)cc(OCCCC3CCN(c4ncc(Br)cn4)CC3)cc2F)no1 [Example 29, 3-(4-(3-(1-(5-bromopyrimidin-2-yl)piperidin-4-yl)propoxy)-2,6-difluorophenyl)-5-isopropyl-1,2,4-oxadiazole] | 75.3 | 173 |
| Cc1nc(-c2c(F)cc(OCCCC3CCN(c4ncc(-c5noc(CC(C)C)n5)cn4)CC3)cc2F)no1 [Example 30, 3-(2,6-difluoro-4-(3-(1-(5-(5-isobutyl-1,2,4-oxadiazol-3-yl)pyrimidin-2-yl)piperidin-4-yl)propoxy)phenyl)-5-methyl-1,2,4-oxadiazole] | 103 | 172 |
| CCc1nc(-c2c(F)cc(OCCCC3CCN(c4ncc(-c5noc(CC(C)C)n5)cn4)CC3)cc2F)no1 [Example 31, 3-(2,6-difluoro-4-(3-(1-(5-(5-isobutyl-1,2,4-oxadiazol-3-yl)pyrimidin-2-yl)piperidin-4-yl)propoxy)phenyl)-5-ethyl-1,2,4-oxadiazole] | 59.4 | 116 |
| CC(C)Cc1nc(-c2cnc(N3CCC(CCCOc4cc(F)c(-c5noc(C(C)C)n5)c(F)c4)CC3)nc2)no1 [Example 32, 3-(2,6-difluoro-4-(3-(1-(5-(5-isobutyl-1,2,4-oxadiazol-3-yl)pyrimidin-2-yl)piperidin-4-yl)propoxy)phenyl)-5-isopropyl-1,2,4-oxadiazole] | 201 | 288 |
| CCC(C)c1nc(-c2c(F)cc(OCCCC3CCN(c4ncc(-c5noc(CC(C)C)n5)cn4)CC3)cc2F)no1 (stereo not drawn) [Example 33, 5-(sec-butyl)-3-(2,6-difluoro-4-(3-(1-(5-(5-isobutyl-1,2,4-oxadiazol-3-yl)pyrimidin-2-yl)piperidin-4-yl)propoxy)phenyl)-1,2,4-oxadiazole] | 66.8 | 108 |
| COCc1nc(-c2c(F)cc(OCCCC3CCN(c4ncc(-c5noc(CC(C)C)n5)cn4)CC3)cc2F)no1 [Example 34, 3-(2,6-difluoro-4-(3-(1-(5-(5-isobutyl-1,2,4-oxadiazol-3-yl)pyrimidin-2-yl)piperidin-4-yl)propoxy)phenyl)-5-(methoxymethyl)-1,2,4-oxadiazole] | 82.1 | 134 |
| CC[C@H](O)c1nc(-c2c(F)cc(OCCCC3CCN(c4ncc(-c5noc(CC(C)C)n5)cn4)CC3)cc2F)no1 [Example 35, (S)-1-(3-(2,6-difluoro-4-(3-(1-(5-(5-isobutyl-1,2,4-oxadiazol-3-yl)pyrimidin-2-yl)piperidin-4-yl)propoxy)phenyl)-1,2,4-oxadiazol-5-yl) propan-1-ol] | 52.5 | 118 |
| CC(C)Cc1nc(-c2cnc(N3CCC(CCCOc4cc(F)c(-c5noc(C(C)(C)CO)n5)c(F)c4)CC3)nc2)no1 [Example 36, 2-(3-(2,6-difluoro-4-(3-(1-(5-(5-isobutyl-1,2,4-oxadiazol-3-yl)pyrimidin-2-yl)piperidin-4-yl)propoxy)phenyl)-1,2,4-oxadiazol-5-yl)-2-methylpropan-1-ol] | 66.4 | 174 |
| CC(C)c1nc(-c2c(F)cc(OCCCC3CCN(c4cnc(Cl)cn4)CC3)cc2F)no1 [Example 37, 3-(4-(3-(1-(5-chloropyrazin-2-yl)piperidin-4-yl)propoxy)-2,6-difluorophenyl)-5-isopropyl-1,2,4-oxadiazole] | 52.1 | 307 |
